Biological target: T1, NostocER1 (Nostoc sp. PCC 7120 = FACHB-418, UniProt A0ACD6B956)
T1 construct: gene all1865; full-length gene, pET28a(+) based vector (NcoI/BamHI), co-expressed with M. vaccae FDH in E. coli BL21(DE3)
Assay: whole-cell biotransformation, chiral GC-FID
Format: cell-based
Conditions: E. coli BL21(DE3) whole cells with FDH; 300 mM (R)-carvone, 450 mM formate, 0.1 mM NAD+, XAD4 resin, pH 7.0, 25 °C; product (2R,5R)-dihydrocarvone

T1 sequence (A0ACD6B956 38-402): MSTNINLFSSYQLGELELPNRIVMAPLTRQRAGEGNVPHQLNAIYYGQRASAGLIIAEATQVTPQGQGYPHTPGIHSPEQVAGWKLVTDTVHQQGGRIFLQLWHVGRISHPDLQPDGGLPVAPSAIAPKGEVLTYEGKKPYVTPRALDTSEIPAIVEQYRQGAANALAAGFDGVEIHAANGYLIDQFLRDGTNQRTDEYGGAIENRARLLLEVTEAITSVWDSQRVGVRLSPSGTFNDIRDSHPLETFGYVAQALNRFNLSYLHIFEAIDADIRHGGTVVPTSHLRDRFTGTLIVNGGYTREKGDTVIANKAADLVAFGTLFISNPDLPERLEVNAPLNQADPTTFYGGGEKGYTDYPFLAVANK

C=C(C)[C@@H]1CC=C(C)C(=O)C1 [compound 1, (R)-carvone]
whole-cell biotransformation, chiral GC-FID: E. coli cells with the NostocER1 wild type possessed the slowest of all determined product formation rates

— article PMC6681004, “Asymmetric Whole-Cell Bio-Reductions of (R)-Carvone Using Optimized Ene Reductases” (Molecules, 2019)
